Measured values: paper PMC7385131, “Mechanisms of activation and desensitization of full-length glycine receptor in lipid nanodiscs” (Nature Communications, 2020)

Experiments:
[1] = target: T1, zebrafish GlyRα1 (full-length glycine receptor α1) (Danio rerio, UniProt O93430); assay: cryo-EM structure in lipid nanodiscs ([…] Å); TEVC in oocytes; format: binding
T1 construct: gene glra1; homopentamer in asolectin/MSP1E3D1 nanodiscs
T1 sequence (O93430 1-444): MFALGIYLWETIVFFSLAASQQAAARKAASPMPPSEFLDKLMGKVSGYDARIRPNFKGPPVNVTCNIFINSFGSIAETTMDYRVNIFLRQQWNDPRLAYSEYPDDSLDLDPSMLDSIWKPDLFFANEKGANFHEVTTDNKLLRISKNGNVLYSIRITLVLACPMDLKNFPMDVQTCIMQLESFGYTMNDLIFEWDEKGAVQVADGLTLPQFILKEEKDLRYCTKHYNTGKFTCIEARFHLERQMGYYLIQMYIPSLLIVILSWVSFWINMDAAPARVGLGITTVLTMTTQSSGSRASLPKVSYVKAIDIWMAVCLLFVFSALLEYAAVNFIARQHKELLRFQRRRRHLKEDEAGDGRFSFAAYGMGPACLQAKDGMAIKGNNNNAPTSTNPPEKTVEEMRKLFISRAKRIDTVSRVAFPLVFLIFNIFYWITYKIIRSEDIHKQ

[2] = target: T1, zebrafish GlyRα1 (full-length glycine receptor α1); assay: cryo-EM structure in lipid nanodiscs ([…] Å) with glycine; TEVC block in oocytes; format: binding
[3] = target: the molecule itself; assay: cryo-EM structure; GlyR in asolectin nanodiscs (MSP1E3D1), ~0.1 mg/ml, buffer A (200 mM NaCl, 20 mM HEPES pH 8.0); no ligand, 5 mM glycine, 5 mM glycine + 3 mM picrotoxin, 1 mM glycine + 0.5 uM ivermectin, or 0.1 mM glycine + 30 uM ivermectin; C5 symmetry imposed

NCC(=O)O [Gly, glycine]
cryo-EM structure in lipid nanodiscs (3.47 Å); TEVC in oocytes [1]: 3D reconstructions reveal an additional small density in the canonical neurotransmitter-binding pocket wedged at the subunit interface in the ECD

C=C(C)[C@@H]1[C@H]2OC(=O)[C@@H]1[C@]1(O)C[C@H]3OC34C(=O)O[C@H]2[C@@]41C.CC(C)(O)[C@@H]1[C@H]2OC(=O)[C@@H]1[C@]1(O)C[C@H]3OC34C(=O)O[C@H]2[C@@]41C (stereo partly drawn) [PTX, picrotoxin]
cryo-EM structure in lipid nanodiscs (3.51 Å) with glycine; TEVC block in oocyte [2]: an additional density was seen in the pore at the mid-level of M2 nestled between Gly2′ and Leu9′

B1: full-length zebrafish glycine receptor α1 (GlyRα1) (receptor, UniProt O93430 25-444, looked up)
chain: ARKAASPMPPSEFLDKLMGKVSGYDARIRPNFKGPPVNVTCNIFINSFGSIAETTMDYRVNIFLRQQWNDPRLAYSEYPDDSLDLDPSMLDSIWKPDLFFANEKGANFHEVTTDNKLLRISKNGNVLYSIRITLVLACPMDLKNFPMDVQTCIMQLESFGYTMNDLIFEWDEKGAVQVADGLTLPQFILKEEKDLRYCTKHYNTGKFTCIEARFHLERQMGYYLIQMYIPSLLIVILSWVSFWINMDAAPARVGLGITTVLTMTTQSSGSRASLPKVSYVKAIDIWMAVCLLFVFSALLEYAAVNFIARQHKELLRFQRRRRHLKEDEAGDGRFSFAAYGMGPACLQAKDGMAIKGNNNNAPTSTNPPEKTVEEMRKLFISRAKRIDTVSRVAFPLVFLIFNIFYWITYKIIRSEDIHKQ
modifications: N-glycan at Asn62
notes: Glycine receptor subunit alpha-1, zebrafish, full-length gene, codon-optimized; residues numbered as in UniProt O93430; Homopentamer; the model begins at Pro31; No thrombin cleavage is told; also called full-length glycine α1 receptor; GlyR–Apo; source: Sf9 cells (baculovirus, pFastBac1), purified (TALON, Superose 6), reconstituted into asolectin nanodiscs with MSP1E3D1
stoichiometry N [3]: 5
